What was measured:
[1] = Needleman, Hypertension 7, 469 (1985), cited from earlier work
Enkephalinase = molecular target: T1, Enkephalinase (Rattus norvegicus, UniProt P07861); experiment: Enkephalinase inhibition, fluorometric assay with dansyl-D-AlaGly(p-nitro)PheGly; assay type: biochemical; settings: substrate of enkephalinase, 50 mM HEPES pH 7.4, 25° C.
T1 construct: Enkephalinase is partially purified from rat kidney; from tissue; host or cells: rat kidney (microvilli fraction), further purified by Mono Q anion exchange
T1 sequence (P07861 1-750): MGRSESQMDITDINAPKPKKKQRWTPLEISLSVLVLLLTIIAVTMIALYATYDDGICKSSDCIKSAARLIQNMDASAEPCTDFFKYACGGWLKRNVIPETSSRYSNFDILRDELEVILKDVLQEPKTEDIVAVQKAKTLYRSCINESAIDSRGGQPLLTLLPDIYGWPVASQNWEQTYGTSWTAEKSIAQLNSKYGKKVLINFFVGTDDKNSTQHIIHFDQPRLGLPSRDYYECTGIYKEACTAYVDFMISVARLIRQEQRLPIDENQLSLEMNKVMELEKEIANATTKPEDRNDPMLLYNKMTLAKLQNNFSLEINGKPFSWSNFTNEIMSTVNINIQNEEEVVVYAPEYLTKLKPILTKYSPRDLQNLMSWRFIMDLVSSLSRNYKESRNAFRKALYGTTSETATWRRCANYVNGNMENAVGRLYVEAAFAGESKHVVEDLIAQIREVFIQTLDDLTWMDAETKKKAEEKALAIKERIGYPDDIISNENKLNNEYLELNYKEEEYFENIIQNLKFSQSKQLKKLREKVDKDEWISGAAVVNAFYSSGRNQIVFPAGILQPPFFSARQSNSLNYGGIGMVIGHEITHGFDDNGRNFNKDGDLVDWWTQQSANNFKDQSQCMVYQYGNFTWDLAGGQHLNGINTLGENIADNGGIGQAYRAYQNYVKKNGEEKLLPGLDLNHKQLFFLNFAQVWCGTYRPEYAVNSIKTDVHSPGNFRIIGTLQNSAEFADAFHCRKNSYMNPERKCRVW
Text: Enkephalinase is partially purified from rat kidney. The enzyme is extracted from the microvilli fraction by using Triton X-100 according to the method of Malfroy and Schwartz [Biol. Chem. 259, 14365-14370 (1984)] or by using a proteolytic treatment according to the method of Almenoff and Orlowski [Biochem. 22, 590-599 (1983)]. The enzyme is further purified by anion exchange chromatography (Mono Q™ column, Pharmacia) using a Pharmacia FPLC system. The enzyme activity may be measured by the fluorometric methods of Florentin et al. [
Anal. Biochem. 141, 62-69 (1984)] or of Almenoff and Orlowski [Neurochemistry 42, 151-157 (1984)]. The enzyme is assayed in 50 mM HEPES buffer (pH 7.4) in a 3.0 mL reaction volume containing 12 μM of the substrate dansyl-D-AlaGly(p-nitro)PheGly (Km =40μM) at 25° C. The substrate (and inhibitor) is added from a concentrated stock solution in DMSO (up to 0.1 mL DMSO final volume). The enzyme in a small volume (approximately 0.1 μg of FPLC purified protein) is added to initiate the reaction and the rate of fluorecense increase is recorded continuously using a fluorometer (excitation at 339 nm, emission at 562 nm).

Row | Substance | binding affinity, lower end of range ([1]; affinities ranging from about) [pM] | binding affinity, upper end of range ([1]; affinities ranging to about) [nM] | Km (Enkephalinase) [µM]
1 | ANP: family of naturally-occurring peptides which are involved in the homeostatic regulation of blood pressure, as well as sodium and water levels | ≥ 50 | ≤ 500 | –
2 | dansyl-D-AlaGly(p-nitro)PheGly | – | – | 40
